Consider three compounds from paper PMC4976923, “Potent Allosteric Dengue Virus NS5 Polymerase Inhibitors: Mechanism of Action and Resistance Profiling” (PLoS Pathogens, 2016).

One assay has as its target T1, DENV1 FL NS5 (Dengue virus type 1, UniProt P17763).
T1 construct: 100 nM DENV FL NS5 protein was added; made in house
Description: DENV1 FL NS5 de novo initiation FAPA assay. Format: biochemical. The note with it: one experiment; read-out: DENV FL NS5 de novo initiation FAPA, IC50, DENV1. As for the experimental part: (§1) DENV1-4 FL NS5 dnI assays were performed as described previously. Briefly, compounds from 0–20 or -100 μM concentrations are two-fold serially diluted into 384-well black opaque plates (Corning Costar), after which 100 nM DENV FL NS5 protein was added and the plates incubated at RT for 20 min. RNA and ATTO-CTP, ATP, GTP and UTP were then added and the plates incubated for another 120 min. Reactions were stopped with buffer containing 25 nM CIP, re- incubated at RT for 60 min and read on a Tecan Safire II microplate reader. For order-of-addition experiments, DENV4 FL NS5 was incubated for one hour at RT with RNA, ATP, and GTP or RNA, ATP, GTP and ATTO-CTP, followed by exposure to serially diluted compounds for 20 min at RT. The missing components (ATTO-CTP and UTP or UTP alone) were added and the reactions continued for 120 min after which STOP buffer was added as before. All datapoints were performed in duplicate wells. Each compound was tested at least twice.
(§2) 2 Co mpound testing with DENV dn I FAPA assays. Final dn I assa y reaction mixtures
(§3) 3 contained 100 nM DENV 5 ´UTR-L-3´UTR IVT RNA, 20 µ M ATP, 20 µM GTP, 20 µM
(§4) 4 UTP, 5 µM ATTO -CTP, and 100 nM of DENV FL NS5 protein in 15 µl in assa y buffer
(§5) 5 comprising 50 mM Tris/ HCl, pH 7.5, 10 mM KCl, 1 mM MgCl2, 0.3 mM MnCl2 (DENV2
(§6) 6 and 4) or 1 mM MnCl 2 (DENV1 and 3), 0.001% Triton- X-100 and 10 µ M cystein e [ 1] . To
(§7) 7 perform dose-respons e inhibition measurements, compounds from 0- 20 or - 100 µM
(§8) 8 concentr ations are two -fold seriall y diluted into 384-well black opaqu e plat es (Corning
(§9) 9 Costar), after which 100 nM DENV FL NS5 protein was added into resp ect ive wells. The
(§10) 10 plates wer e sealed, b riefl y shak en and centrif uged at 1500 rpm for 30 sec and incubated at RT
(§11) 11 for 15 min. Thereafter,RNA and ATTO -CTP, ATP, GTP and UTP were added to the wells to
(§12) 12 start the reactions. The pl ates wer e re-seal ed, shaken and centrifuged as before, followed b y
(§13) 13 incubation RT for 120 min. Reactions were stopped by addition of 10 µl of 2.5X STOP
(§14) 14 buffer (200 mM NaCl, 25 mM MgCl2, 1.5M DEA, pH 10; Promega) with 25 nM calf
(§15) 15 intestinal phosphatase (CIP), re- incubation at RT for 60 min and read on a Tecan Safire II
(§16) 16 microplate reader. For o r der-of-addition experiments, DENV4 FL NS5 was incubated for one
(§17) 17 hour at RT with RNA, ATP, and GTP or RNA, ATP, GTP and ATTO-CTP, followed by
(§18) 18 exposure to seriall y dilut ed compounds for 20 mi n at RT. The missing components (ATTO-
(§19) 19 CTP and UTP or UTP alone) were added and the reactions continued for 120 min after which
(§20) 20 STOP buffer was added as before. All datapoints were performed in duplicate wells. Each
(§21) 21 compound was tested at l east twice.
(§22) 23 Compound testing in DENV1-4 infected cells by high content imaging. Approximatel y 7
(§23) 24 × 10^3 A549 cells per well were s eeded into 384-well plates in Ham’s F-12K medium

The target in the next assay is T2, DENV3 FL NS5 (Dengue virus type 3, UniProt Q6YMS4).
T2 construct: 100 nM DENV FL NS5 protein was added; made in house
Description: DENV3 FL NS5 de novo initiation FAPA assay. Format: biochemical. The note with it: one experiment; read-out: DENV FL NS5 de novo initiation FAPA, IC50, DENV3. How it is done:
as §1, §2, §3, §4, §5, §6, §7, §8, §9, §10, §11, §12, §13, §14, §15, §16, §17, §18, §19, §20, §21, §22, §23

The subject of assay [1] is DENV2-NGC virus L512V/E802D. It counts as cell-based. The settings on record: A549, MOI = 0.2; 48 hr; plaque assay.
Assay [2] deals with DENV2-NGC virus Wild Type. Description: WT DENV2-NGC virus in A549 cells, plaque assay. The settings on record: Dengue virus, DENV2, A549, 48 h, read-out: EC50, DENV2-NGC Virus, Wild Type.
A further assay deals with DENV2-NGC replicon E802D. Format: cell-based. The note with it: electroporated BHK-21; 2 days.
The target in the next assay is T3, DENV2 FL NS5 L511V (Dengue virus type 2, UniProt P14340, L3003V).
T3 construct: Recombinant DENV2 (A, C) and DENV4 (B, D) FL NS5 proteins bearing single or double amino acid changes; made in house
Format: binding. The settings on record: 50 µM compound; for Protein melting temperature, Tm, DENV2 FL NS5 L511V: DMSO 35.5.

For the next assay, the target named is T4, DENV4 FL NS5 L512V/Q802N (Dengue virus type 4, UniProt P09866, L2999V/Q3290N).
T4 construct: made in house
Format: binding. The note with it: 50 µM compound; for Protein melting temperature, Tm, DENV4 FL NS5 L512V/Q802N: DMSO 36.

For another assay, the target named is T5, DENV4 FL NS5 L512V (Dengue virus type 4, UniProt P09866, L2999V).
T5 construct: Recombinant DENV2 (A, C) and DENV4 (B, D) FL NS5 proteins bearing single or double amino acid changes; made in house
Format: binding. The note with it: 50 µM compound; for Protein melting temperature, Tm, DENV4 FL NS5 L512V: DMSO 36.5.

Assay [3] addresses DENV4 RdRp domain (aa 268–900) (Dengue virus type 4, UniProt P09866). Description: Thermo-denaturation assay, recombinant RdRp domain. It counts as binding. The settings on record: +50 μM compound; DMSO control 50. How it is done:
Site-directed alanine mutations of DENV4 FL NS5 cDNA were performed using pET28-D4-MY01-22713 NS5FL [23] as a template, according to the manufacturer’s protocol (Stratagene, USA). Protein expressions of DENV1-4 FL NS5 and their stability analyses by thermo-fluorescence were performed as described previously. DENV de novo initiation and elongation FAPA assays were earlier described. […]
6 Fi g .5. Ef fects of N -pocket compounds on DENV pol ymerase thermo-stability. Melting
7 temperatur e (Tm) w as ass essed b y thermo-d enatur ation in presence of the S YPRO Oran ge
8 dye as described in Materials and Methods. (A-F) Representative meltin g curves of DEN V4
10 inhibitors or 5 % DMSO control. […]
16 controls treated with DMSO.

With `COc1cccc(S(=O)(=O)NC(=O)c2cc(-c3ccc(C#CCO)s3)c(OC)cc2C)c1` [Compound 26i], the values for the IC50 at DENV1 FL NS5 and on DENV3 FL NS5 were 24 nM and 54 nM, respectively.

Consider `COc1cccc(S(=O)(=O)NC(=O)c2cc(-c3ccc(C#CCO)s3)c(OC)cc2OC)c1` [Compound 27], for which the concentration for a half-maximal effect (EC50) (as a rule, the concentration at which the effect is half-maximal) in assay [1] was determined as 2320 nM. Besides, in [2], the EC50 came to 870 nM. Moreover, the EC50 in the assay with DENV2-NGC replicon E802D turned out to be 12800 nM. For the same compound, at DENV2 FL NS5 L511V, the “Tm change compared to DMSO control, DENV2 FL NS5 L511V” value was 0 °C and the “Protein melting temperature, Tm, DENV2 FL NS5 L511V” value was 35.5 °C. Also, on DENV4 FL NS5 L512V/Q802N, the “Tm change compared to DMSO control, DENV4 FL NS5 L512V/Q802N” value is -1 °C and the “Protein melting temperature, Tm, DENV4 FL NS5 L512V/Q802N” value is 35 °C. On DENV4 FL NS5 L512V, the “Tm change compared to DMSO control, DENV4 FL NS5 L512V” value turned out to be 0 °C and the “Protein melting temperature, Tm, DENV4 FL NS5 L512V” value was determined as 36.5 °C. In assay [3], the “Protein melting temperature Tm with compound, RdRp domain” value is 58 °C.

With `COc1cc(OC)c(-c2ccc(C#CCO)s2)cc1C(=O)NS(=O)(=O)c1cccc2cccnc12` [Compound 29], on DENV1 FL NS5, the IC50 (as a rule, the concentration needed to halve the response being measured) was found to be 13 nM. Further, at DENV3 FL NS5, the half-inhibitory concentration (IC50) was 16 nM. In addition, in [1], it took 7010 nM to reach a half-maximal effect (EC50). Moreover, the EC50 in [2] was 1110 nM. Besides, in the assay with DENV2-NGC replicon E802D, a half-maximal response (EC50) required 21400 nM. Besides, on DENV2 FL NS5 L511V, the “Tm change compared to DMSO control, DENV2 FL NS5 L511V” value is 1.0 °C and the “Protein melting temperature, Tm, DENV2 FL NS5 L511V” value stood at 36.5 °C. For the same compound, at DENV4 FL NS5 L512V/Q802N, the “Tm change compared to DMSO control, DENV4 FL NS5 L512V/Q802N” value is -0.5 °C and the “Protein melting temperature, Tm, DENV4 FL NS5 L512V/Q802N” value is 35.5 °C. Further, at DENV4 FL NS5 L512V, the “Tm change compared to DMSO control, DENV4 FL NS5 L512V” value came to 1.5 °C and the “Protein melting temperature, Tm, DENV4 FL NS5 L512V” value is 38 °C. Besides, in assay [3], the “Protein melting temperature Tm with compound, RdRp domain” value stood at 64 °C.
